According to ChEMBL document CHEMBL3352134, “In silico and pharmacological screenings identify novel serine racemase inhibitors” (Bioorg Med Chem Lett, 2014):

Tests used:
Serine racemase [1] = molecular target: T1, Serine racemase (Homo sapiens, UniProt Q9GZT4); assay: Binding affinity to serine recemase (unknown origin)
T1 sequence (Q9GZT4 whole entry): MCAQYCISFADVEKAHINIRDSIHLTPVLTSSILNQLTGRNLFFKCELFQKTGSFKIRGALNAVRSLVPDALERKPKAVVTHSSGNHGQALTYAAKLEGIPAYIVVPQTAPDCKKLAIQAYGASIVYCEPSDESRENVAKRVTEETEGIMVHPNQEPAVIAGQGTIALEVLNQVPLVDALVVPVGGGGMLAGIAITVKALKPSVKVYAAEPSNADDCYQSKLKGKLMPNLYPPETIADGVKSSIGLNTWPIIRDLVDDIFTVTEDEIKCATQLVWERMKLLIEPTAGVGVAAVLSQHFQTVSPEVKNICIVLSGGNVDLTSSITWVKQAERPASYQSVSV

[2] = molecular target: T2, Serine racemase (Homo sapiens) (UniProt Q9GZT4); assay: Inhibition of full length human recombinant serine recemase C2DC6D mutant expressed in Escherichia coli BL21 (DE3) assessed as D-serine production at 1 mM after 10 mins by Saccharomyces cerevisiae Dsd1SC based D-serine detection assay
T2 sequence (whole entry): T1 sequence (Q9GZT4 whole entry)

Serine racemase [3] = molecular target: Serine racemase (Homo sapiens, UniProt Q9GZT4); assay: Inhibition of full length human recombinant serine recemase C2DC6D mutant expressed in Escherichia coli BL21 (DE3) assessed as D-serine production after 10 mins by Saccharomyces cerevisiae Dsd1SC based D-serine detection assay

Structure (SMILES): N[C@H](C(=O)O)[C@@H](O)C(=O)O
- Ki (Serine racemase [1]): 11 µM

Structure (SMILES): NCC(=O)O [GLYCINE]
- Ki (Serine racemase [1]): 366 µM

Structure (SMILES): O=C(O)CC(=O)O [MALONIC ACID]
- inhibition [2]: 59%
- IC50 (Serine racemase [3]): 1310 µM
- Ki (Serine racemase [1]): 33 µM
